{"source": "ChEMBL document CHEMBL1146705", "about": "“Resistance towards exonucleases of dinucleotides with stereochemically altered internucleotide phosphate bonds” (Bioorg Med Chem Lett, 2004)", "key": {"[1]": {"experiment": "Affinity for phosphodiesterase 1"}, "[2]": {"experiment": "Ratio of Vmax to that of Km towards phosphodiesterase I (PDE I)"}, "[3]": {"experiment": "Vmax towards phosphodiesterase 1"}, "[4]": {"experiment": "Ratio of Vmax to that of Km towards phosphodiesterase II (PDE II)"}, "[5]": {"experiment": "Vmax towards phosphodiesterase I and II; NS = Non-substrate"}}, "data": [{"smiles": "Nc1ccn(C2C[C@@H](O)[C@@H](COP(=O)(O)O[C@H]3[C@@H](CO)OC[C@@H]3n3cnc4c(N)ncnc43)O2)c(=O)n1", "note": "(some centres undefined)", "values": [{"measurement": "Km", "setting": "[1]", "result": 1250, "unit": "µM"}, {"measurement": "Ratio", "setting": "[2]", "result": 15.4}, {"measurement": "Vmax", "setting": "[3]", "result": 19.2, "unit": "mM/min"}, {"measurement": "Ratio", "setting": "[4]", "result": 4.5}]}, {"smiles": "Nc1ccn(C2C[C@@H](OP(=O)(O)OC[C@H]3OC[C@H](n4ccc(N)nc4=O)[C@H]3O)[C@@H](COP(=O)(O)O)O2)c(=O)n1", "note": "(some centres undefined)", "values": [{"measurement": "Vmax", "setting": "[5]", "result": "Non substrate"}]}, {"smiles": "Nc1ccn(C2C[C@@H](O)[C@@H](COP(=O)(O)O[C@@H]3CC(n4cnc5c(N)ncnc54)O[C@@H]3CO)O2)c(=O)n1", "note": "(some centres undefined)", "values": [{"measurement": "Km", "setting": "[1]", "result": 2700, "unit": "µM"}, {"measurement": "Ratio", "setting": "[2]", "result": 52.4}, {"measurement": "Vmax", "setting": "[3]", "result": 141, "unit": "mM/min"}, {"measurement": "Ratio", "setting": "[4]", "result": 21.1}]}, {"smiles": "Nc1ccn([C@H]2C[C@H](O)[C@@H](COP(=O)(O)O[C@H]3[C@H](n4cnc5c(N)ncnc54)CO[C@@H]3COP(=O)(O)O)O2)c(=O)n1", "values": [{"measurement": "Vmax", "setting": "[5]", "result": "Non substrate"}]}, {"smiles": "Nc1ccn(C2C[C@@H](O)[C@@H](COP(=O)(O)O[C@@H]3CC(n4ccc(N)nc4=O)O[C@@H]3CO)O2)c(=O)n1", "note": "(some centres undefined)", "values": [{"measurement": "Km", "setting": "[1]", "result": 900, "unit": "µM"}, {"measurement": "Ratio", "setting": "[2]", "result": 1610}, {"measurement": "Vmax", "setting": "[3]", "result": 1450, "unit": "mM/min"}, {"measurement": "Ratio", "setting": "[4]", "result": 87.8}]}]}
